Laboratory results reported in paper PMC9768625, “Is the vesicular nucleotide transporter a molecular target of eicosapentaenoic acid?” (Frontiers in Pharmacology, 2022).

Biological target: T1, V-ATPase (vacuolar H^+-ATPase), purified from chromaffin granules (Bos taurus, UniProt P23956+Q29466)
T1 construct: gene ATP6V0C; purified chromaffin granule V-ATPase in reconstituted proteoliposomes (multi-subunit complex; subunits A, B and c indicated)
Experiment: colorimetric Mg-ATPase (Pi release) assay of proteoliposomes containing purified V-ATPase, con B at […]
Assay type: biochemical
Conditions: proteoliposomes with purified v-atpase

## C/C=C/[C@H]1O[C@@](O)([C@@H](C)[C@H](O)[C@H](C)[C@H]2OC(=O)/C(OC)=C/C(C)=C/[C@@H](C)[C@@H](O)[C@@H](C)[C@@H](O)[C@H](C)C/C(C)=C/C=C/[C@@H]2OC)C[C@@H](O[C@H]2C[C@@H](O)[C@H](OC(N)=O)[C@@H](C)O2)[C@@H]1C [con B, concanamycin B]
  % of ATPase activity sensitive at 1 μM: > 95 % of ATPase activity sensitive at 1 μM
